The values below come from ChEMBL document CHEMBL1201862, “PubChem BioAssay data set” (2004).

Activity calls are given as the source filed them.

For assay [1], the target named is Troponin, cardiac muscle (Homo sapiens, UniProt P19429+P45379+P63316). As to the kind of experiment: Fluorescence-based biochemical high throughput dose response assay for activators of the calcium sensitivity of cardiac Regulated Thin Filaments (RTF). [Related pubchem assays (depositor defined):AID493008, AID493018, AID504382, AID504383]. Type of assay: protein-complex assay.

Assay [2] can be described thus: HEK-293T cell viability reduction – luminescence, B-cell screen hits, cytotoxicity control for BCR NF-kB inhibitor project, dose response (AID 489021).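 Also: HEK-293T cells carrying an NF-kB luciferase reporter; cells exposed to compound for about 14 hours before viability readout.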 Type of assay: functional, cell-based.
Assay [3] concerns Escherichia coli. As to the kind of experiment: microbe, parasite or virus in culture.
Assay [4] can be described thus: A cytotoxicity screen of small molecule inhibitors of the PhoP region in Salmonella typhi identified in the primary screen. [Related pubchem assays: 1850, 1864, 1985 ]. The class given is functional.
A short description of assay [5]: Luminescence Cell-Based Dose Confirmation HTS to Identify Activators of 5'UTR Stem-Loop Driven Alpha-Synuclein mRNA Translation in H4 Neuroglioblastoma Cells. [Related pubchem assays: 1829 (Project Summary), 1814 (Primary HTS)]. Type of assay: functional.
The nature of assay [6]: Luminescence Cell-Based Dose Response HTS to Identify Activators of Luciferase Translation or Activity in H4 […] Cells. [Related pubchem assays: 1829 (Project Summary), 1814 (Primary HTS)]. Type of assay: functional.
Assay [7] relates to H4. Nature of the assay: Luminescence Cell-Based Dose Response HTS to Identify Activators of 5'UTR Stem-Loop Driven Prion Protein mRNA Translation in H4 Neuroglioblastoma Cells. [Related pubchem assays: 1829 (Project Summary), 1814 (Primary HTS)]. Type of assay: functional. Conditions: Homo sapiens.
For assay [8], the target named is T1, Replicative DNA helicase DnaB (Mycobacterium tuberculosis, UniProt P9WMR3).
T1 sequence (P9WMR3 whole entry): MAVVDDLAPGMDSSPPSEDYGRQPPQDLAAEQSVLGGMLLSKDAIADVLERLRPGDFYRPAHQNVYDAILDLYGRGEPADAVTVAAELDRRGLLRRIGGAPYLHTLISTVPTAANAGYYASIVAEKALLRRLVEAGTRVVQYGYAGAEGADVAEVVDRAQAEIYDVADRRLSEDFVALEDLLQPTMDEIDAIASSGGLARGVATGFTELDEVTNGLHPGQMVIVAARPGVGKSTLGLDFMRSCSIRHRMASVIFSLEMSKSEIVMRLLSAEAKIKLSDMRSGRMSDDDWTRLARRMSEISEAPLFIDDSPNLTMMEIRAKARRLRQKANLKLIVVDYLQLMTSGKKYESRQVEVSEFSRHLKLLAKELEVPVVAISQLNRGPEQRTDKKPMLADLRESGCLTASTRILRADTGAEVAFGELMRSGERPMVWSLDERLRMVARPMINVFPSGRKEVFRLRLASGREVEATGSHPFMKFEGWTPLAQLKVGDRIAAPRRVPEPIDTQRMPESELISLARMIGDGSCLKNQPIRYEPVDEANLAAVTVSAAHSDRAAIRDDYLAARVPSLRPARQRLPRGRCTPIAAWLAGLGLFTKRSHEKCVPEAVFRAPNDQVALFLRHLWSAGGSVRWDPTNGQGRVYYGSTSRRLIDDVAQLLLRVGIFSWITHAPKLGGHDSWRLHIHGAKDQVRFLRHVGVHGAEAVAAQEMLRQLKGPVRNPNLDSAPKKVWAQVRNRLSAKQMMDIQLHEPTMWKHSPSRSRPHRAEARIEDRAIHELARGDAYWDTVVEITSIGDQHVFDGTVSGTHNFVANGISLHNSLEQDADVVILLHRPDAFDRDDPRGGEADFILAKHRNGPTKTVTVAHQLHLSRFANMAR
Nature of the assay: DnaB intein splicing inhibitors, dose response, biochemical, cell-free fluorescence (AID 449749). Type of assay: functional.

Assay [9] has as its target T2, Protein RecA (Mycobacterium tuberculosis, UniProt P9WHJ3).
T2 sequence (P9WHJ3 whole entry): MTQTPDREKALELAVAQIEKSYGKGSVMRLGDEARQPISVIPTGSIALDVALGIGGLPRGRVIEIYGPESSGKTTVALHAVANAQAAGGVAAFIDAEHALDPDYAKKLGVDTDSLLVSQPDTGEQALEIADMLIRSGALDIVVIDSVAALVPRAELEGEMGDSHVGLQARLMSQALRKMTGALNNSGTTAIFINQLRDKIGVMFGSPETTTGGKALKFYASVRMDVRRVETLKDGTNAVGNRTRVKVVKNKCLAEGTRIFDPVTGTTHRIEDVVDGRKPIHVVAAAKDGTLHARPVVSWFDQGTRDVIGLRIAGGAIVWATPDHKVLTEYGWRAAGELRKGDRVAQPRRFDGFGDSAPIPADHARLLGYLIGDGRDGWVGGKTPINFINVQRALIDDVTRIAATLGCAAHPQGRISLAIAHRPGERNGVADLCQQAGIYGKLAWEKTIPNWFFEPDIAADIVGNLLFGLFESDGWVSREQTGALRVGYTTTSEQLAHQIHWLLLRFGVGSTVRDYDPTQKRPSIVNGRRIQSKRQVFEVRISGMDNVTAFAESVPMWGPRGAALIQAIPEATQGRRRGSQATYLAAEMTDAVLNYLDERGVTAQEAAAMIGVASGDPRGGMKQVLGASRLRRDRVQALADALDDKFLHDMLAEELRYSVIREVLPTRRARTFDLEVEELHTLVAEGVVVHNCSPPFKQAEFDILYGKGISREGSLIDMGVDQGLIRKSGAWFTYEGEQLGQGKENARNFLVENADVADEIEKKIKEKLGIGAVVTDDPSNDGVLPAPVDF
Nature of the assay: Fluorescence Cell-Free Homogeneous Dose Retest to Identify Inhibitors of RecA-Intein Splicing Activity. [Related pubchem assays (depositor defined):AID2097, AID2223, AID489010, AID492950]. The class given is functional.

Assay [10] has as its target Heat shock protein HSP 90-alpha (Homo sapiens, UniProt P07900). The class given is functional, organism-based.
The nature of assay [11]: viability loss in THP-1 monocytes – THP-1 cells, cytotoxicity control for Vif-APOBEC3G degradation inhibitor project, dose response (AID 1117359). The class given is functional. Conditions: THP-1.
The target of assay [12] is T3, Protein skinhead-1 (Caenorhabditis elegans, UniProt P34707).
T3 sequence (P34707 whole entry): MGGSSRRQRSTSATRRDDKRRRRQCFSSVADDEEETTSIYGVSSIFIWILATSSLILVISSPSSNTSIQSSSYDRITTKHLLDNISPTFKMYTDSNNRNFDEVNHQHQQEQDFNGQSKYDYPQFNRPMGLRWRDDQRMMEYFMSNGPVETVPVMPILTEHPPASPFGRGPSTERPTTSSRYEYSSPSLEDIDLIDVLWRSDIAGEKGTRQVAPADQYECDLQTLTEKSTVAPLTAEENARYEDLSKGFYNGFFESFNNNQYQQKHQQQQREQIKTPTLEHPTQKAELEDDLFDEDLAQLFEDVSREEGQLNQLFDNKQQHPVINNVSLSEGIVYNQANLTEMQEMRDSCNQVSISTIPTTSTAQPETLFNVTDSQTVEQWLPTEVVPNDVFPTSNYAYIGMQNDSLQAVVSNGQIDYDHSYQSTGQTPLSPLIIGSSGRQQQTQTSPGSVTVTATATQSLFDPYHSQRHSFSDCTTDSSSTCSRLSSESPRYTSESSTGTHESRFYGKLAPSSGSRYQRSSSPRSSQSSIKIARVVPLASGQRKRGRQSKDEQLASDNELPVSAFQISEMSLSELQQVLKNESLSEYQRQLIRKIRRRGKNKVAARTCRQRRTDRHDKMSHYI
Type of assay: functional.

Assay [13] addresses Glyceraldehyde-3-phosphate dehydrogenase (Homo sapiens, UniProt P04406).
Assay [14] concerns Vero. Nature of the assay: cells. Type of assay: functional. The conditions noted are these: Chlorocebus sabaeus.
Assay [15] concerns the target Eukaryotic translation initiation factor 4E (Mus musculus, UniProt P63073). Nature of the assay: blockers of eIF4G binding by eIF4E – biochemical, TR-FRET, dose response (AID 855).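 Also: potency for disrupting eIF4E binding to eIF4GI seen as loss of FRET.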 The class given is functional.
The target in assay [16] is T4, SUMO-activating enzyme (Homo sapiens, UniProt Q9UBT2). Nature of the assay: blockers of UBC9-mediated SUMO conjugation – biochemical, AlphaScreen, SUMOylation inhibitor project, confirmation (AID 2018). The class given is functional.
The target in assay [17] is T4, SUMO-activating enzyme. As to the kind of experiment: blockers of SAE1/SAE2–UBC9 SUMO transfer – biochemical, HTRF, uHTS, primary screen (AID 2006). The class given is protein-complex assay.
Assay [18] is described as follows: cells. The class given is functional.
A short description of assay [19]: Trypanosoma cruzi growth suppression in host cells – NIH3T3 host cells, beta-gal luminescence, confirmation (AID 2044).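 Also: intracellular parasites grown in NIH/3T3 mouse fibroblasts as host cells; luminescent beta-galactosidase reporter signal from transgenic T. cruzi replicating inside host cells; inhibitors lower the luminescence signal.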 The class given is functional, cell-based.
A short description of assay [20]: NIH3T3 cell viability loss – ATP luminescence, mouse fibroblasts, counter-screen, dose response (AID 2010).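 Also: cells exposed to compound for about 90 hours before reading.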 The class given is functional, cell-based.
Assay [21] is described as follows: viability of uninfected HEp-2 cells – cell-based, HTS, cytotoxicity control for RSV inhibitor project, dose response (AID 2410). The class given is functional. Conditions: human respiratory syncytial virus.

Take `N#Cc1ccc(S(=O)(=O)NC2CCCCNC2=O)cc1` (centres undefined): the EC50 in [1] was > 71.4 µM (inactive).
As to `Cc1cc(C)c2nc(NC(=O)[C@@H](NC(=O)c3cccc(S(=O)(=O)N4CCOCC4)c3)C(C)C)sc2c1`, the IC50 in assay [2] is > 80 µM (inactive).
For `O=C(NC1CC1)c1ccc(N2CCCCC2)c([N+](=O)[O-])c1`, in [3], the AC50 is 73.1 µM (active).
Consider `O=C(CCNS(=O)(=O)c1cccc2nonc12)N1CCN(c2cccc(Cl)c2)CC1`, for which the half-maximal effective concentration (EC50) in [4] is > 50 µM (active).
For the molecule `CC(C)c1n[nH]c2c1C(c1ccco1)C(C#N)=C(N)O2` (centres undefined), the EC50 is > 120 µM (not active) in assay [5], > 120 µM (not active) in assay [6], 92.5 µM (active) in [7] and 3.05 µM (active) in assay [9]. The IC50 in assay [2] is > 80 µM (inactive). The half-maximal activity concentration (AC50) in [8] was 32.4 µM (active).
For `N#C/C(=C\c1ccc([N+](=O)[O-])o1)C(=O)Nc1ccc(F)cc1`, the AC50 in assay [10] is 0.444 µM (active). In addition, the CC50 in [11] is > 40 µM (active).
On to `O=[N+]([O-])c1ccc2nc(-c3ccccc3)oc2c1`, for which the IC50 in [12] is 63.6 µM (inactive). The half-maximal cytotoxic concentration (CC50) in assay [11] was > 40 µM (active).
Turning to `C[C@H]1CN(C2=C(Cl)C(=O)N(c3ccc(C(F)(F)F)cc3)C2=O)CCN1`, the IC50 in assay [13] was > 50 µM (inconclusive).
Take `CC(C)(C)Nc1c2ccccc2nc2ccccc12`: the 50% effective concentration (EC50) in assay [4] is > 50 µM (active).
As for `COc1ccc(-c2[nH]ncc2CNC(C)c2ccccc2Cl)cc1F` (centres undefined), the CC50 in [14] is > 25 µM (active).
For `NC(=O)NC(=O)COC(=O)c1cccc(NS(=O)(=O)/C=C/c2ccccc2)c1`, the IC50 in assay [15] is 50 µM (inactive). Besides, the EC50 in assay [1] is > 71.5 µM (inactive).
On to `O=C1C(Cl)=C(N2CCN(Cc3ccc4c(c3)OCO4)CC2)C(=O)N1c1ccc(Cl)nc1`, for which the 50% inhibitory concentration (IC50) in [13] is > 50 µM (inconclusive).
Turning to `NC(=O)CC(NC(=O)Cc1ccc(Br)cc1)c1ccc(N2CCC(Br)CC2)c([N+](=O)[O-])c1` (centres undefined), the IC50 was 28.3 µM (active) in assay [16] and 34.5 µM (active) in [17].
As to `Cc1cs/c(=N\c2cccnc2)n1CC1CCCCC1`, the IC50 in [18] was > 50 µM (active).
As to `O=C(Nc1ccc2c(c1)OCCO2)C1CCCN(S(=O)(=O)c2cccnc2)C1` (centres undefined), the AC50 in assay [3] is 52.7 µM (active).
On the same count and under the same terms, the same measure for `CC(=O)c1c(C)[nH]c(C(=O)CSc2nnc3ccccn23)c1C`: 27 µM (active).
Take `CCN(CC)CCOC(=O)c1ccc(NC(=O)CCCN2C(=O)S/C(=C/c3ccc(OC)cc3)C2=S)cc1`: the IC50 in [2] was > 80 µM (inactive).
On to `O=C(Cc1ccc(F)cc1)NC1CCCC1`, for which the EC50 in [4] is > 50 µM (active).
As for `CCN1CCN(c2ccc(S(=O)(=O)N3CCCCC3)cc2NC(=O)Cc2ccc(Cl)c(Cl)c2)CC1`, the EC50 is 0.162 µM (active) in [19] and 6.52 µM (active) in assay [20]. Besides, the cytotoxic concentration (CC50) in assay [11] is 21.2 µM (active).
`O=C(CSC1=NS(=O)(=O)c2ccccc2N1)N1CCCCC1`: the EC50 in assay [1] was > 71.5 µM (inactive).
Turning to `O=C(Nc1ccccc1)NC1CS(=O)(=O)CC1O` (centres undefined), the EC50 in assay [1] was > 71.5 µM (inactive).
As for `Cc1nc([N+](=O)[O-])c(Sc2nc3ccccc3n2C)n1Cc1ccccc1`, the CC50 is 13.5 µM (active) in assay [21] and 20.8 µM (active) in assay [14].
Regarding `CCOc1ccccc1NC(=O)Nc1ccncc1`, the EC50 in assay [4] is > 50 µM (active).
On to `O=C(COC(=O)c1ccc(O)cc1O)c1ccc2c(c1)OCO2`, for which the concentration for half-maximal inhibition (IC50) in assay [18] was 18.2 µM (active).
On to `COC(=O)C(C)Oc1cc(C)cc2oc(=O)c3c(c12)CCC3` (centres undefined), for which, in assay [2], the IC50 was > 80 µM (inactive).
Same read-out and setting: with `N=c1c(C(=O)NC2CCCC2)cc2c(=O)n3ccccc3nc2n1CCN1CCOCC1` the figure was > 80 µM (inactive).
`COc1ccc(-c2nc3ccc(C)cc3c(=O)o2)cc1OC`: the half-maximal inhibitory concentration (IC50) in assay [18] was 7.49 µM (active).
